Source: patent US20250154147A1, “NOVEL AMINE-SUBSTITUTED PHTHALAZINES AND DERIVATIVES AS SOS1 INHIBITORS” (Jazz Pharmaceuticals Ireland Limited, priority 2022, published 2025)

Target: SOS1 binding to KRAS-WT (Homo sapiens (Human), UniProt Q07889)
Assay: SOS1/KRAS WT HTRF binding assay (FRET-based protein-protein interaction assay)
Conditions: 40 nM GST-KRAS-WT, 40 nM His6-SOS1 exchange domain, at least two independent replicates; for IC50: read-out: SOS1/KRAS WT HTRF Binding assay pIC50 (converted)
Description: The capacity of compounds to inhibit SOS1 binding to KRAS-WT (wild-type) was quantified using a FRET-based protein-protein interaction assay. The assay is based on the transfer of energy between two fluorophores, a donor and an acceptor, when in close proximity. In this instance, the donor is a Europium-conjugated α-GST antibody that binds to GST-tagged KRAS-WT, and the acceptor is an XL665-conJugated α-His6 antibody that binds to His6-tagged SOS1. Binding of SOS1 to KRAS-WT results in an increased fluorescent signal at emission wavelength of 665 nm which can be detected on the EnVision plate reader. Compounds that inhibit binding will reduce the 665 nm signal emitted. Recombinant KRAS-WT protein (40 nM; Human KRAS, aal-188 recombinant protein with N-terminal GST-tag) and SOS1 protein (40 nM; Human SOS1 exchange domain, aa564-1049 with N-terminal 6His-tag) were mixed together in assay buffer (5 mM HEPES pH7.3, 150 mM NaCl, 10 mM EDTA, 5 mM MgCl2, 0.05% BSA, 0.0025% NP-40, 1 mM DTT and 100 mM KF) and incubated at room temperature with a dose response of compound in a 384-well low volume white plate and a final volume of 5 ul. After a 60 minute incubation, 5 ul of 4 nM anti-GST-Eu(K) (Cisbio, France) combined with 20 nM anti-6His-XL665 (Cisbio, France), diluted in assay buffer, was added to the plate. Following a further 4 h incubation at room temperature, time-resolved fluorescence was measured on the EnVision plate reader. DMSO (0.05%) and 10 μM reference compound were used to generate the Max and Min assay signals, respectively. Data was analyzed using a four-parameter logistic model to calculate IC50 values, with at least two independent replicates performed for each compound.

Chain of SOS1 binding to KRAS-WT (Q07889 564-1049): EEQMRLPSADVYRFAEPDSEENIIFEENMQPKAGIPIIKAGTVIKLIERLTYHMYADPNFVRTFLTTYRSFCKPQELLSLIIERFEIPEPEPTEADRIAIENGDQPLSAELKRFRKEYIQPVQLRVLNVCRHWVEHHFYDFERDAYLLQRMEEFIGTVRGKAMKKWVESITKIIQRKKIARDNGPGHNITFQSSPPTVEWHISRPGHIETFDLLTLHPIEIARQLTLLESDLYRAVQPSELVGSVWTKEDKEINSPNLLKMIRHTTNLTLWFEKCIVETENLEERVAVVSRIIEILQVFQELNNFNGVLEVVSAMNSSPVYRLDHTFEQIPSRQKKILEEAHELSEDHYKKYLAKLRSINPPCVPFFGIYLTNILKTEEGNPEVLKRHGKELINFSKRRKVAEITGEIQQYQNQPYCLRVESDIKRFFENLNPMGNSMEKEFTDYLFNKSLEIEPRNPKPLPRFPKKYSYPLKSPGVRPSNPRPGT

| Structure (SMILES) | IC50 | SOS1/KRAS WT HTRF Binding assay pIC50 |
| --- | --- | --- |
| Cc1nnc(N[C@H](C)c2cccc(C(F)(F)F)c2)c2cn(C3CCOC3)c(=O)cc12 (mixture of isomers) [Compound 8, 1-methyl-4-[[rac-(1R)-1-[3-(trifluoromethyl)phenyl]ethyl]amino]-6-tetrahydrofuran-3-yl-pyrido[3,4-d]pyridazin-7-one] | 234 nM | – |
| Cc1nnc(NC(C)c2cccc(C(F)(F)F)c2)c2cn(C3CCCC3)c(=O)cc12 (stereo not shown) [Compound 1, 6-cyclopentyl-1-methyl-4-[1-[3-(trifluoromethyl)phenyl]ethylamino] pyrido[3,4-d]pyridazin-7-one] | – | 6.72 |
| Cc1nnc(N[C@H](C)c2cccc(C(F)(F)F)c2)c2cn(C3CCCC3)c(=O)cc12 [Compound 2, 6-cyclopentyl-1-methyl-4-[[(1R)-1-[3-(trifluoromethyl)phenyl]ethyl]amino] pyrido[3,4-d]pyridazin-7-one] | – | 7.11 |
| CCn1cc2c(N[C@H](C)c3cccc(C(F)(F)F)c3)nnc(C)c2cc1=O [Compound 3, 6-ethyl-1-methyl-4-[[(1R)-1-[3-(trifluoromethyl)phenyl]ethyl]amino] pyrido[3,4-d]pyridazin-7-one] | – | 6.46 |
| Cc1nnc(N[C@H](C)c2cccc(C(F)(F)F)c2)c2cn(CC3CC3)c(=O)cc12 [Compound 4, 6-(cyclopropylmethyl)-1-methyl-4-[[(1R)-1-[3-(trifluoromethyl)phenyl]ethyl]amino] pyrido[3,4-d]pyridazin-7-one] | – | 6.52 |
| Cc1nnc(N[C@H](C)c2cccc(C(F)(F)F)c2)c2cn(CC3COC3)c(=O)cc12 [Compound 5, 1-methyl-6-(oxetan-3-ylmethyl)-4-[[(1R)-1-[3-(trifluoromethyl)phenyl]ethyl]amino] pyrido[3,4-d]pyridazin-7-one] | – | 6.52 |
| Cc1nnc(N[C@H](C)c2cccc(C(F)(F)F)c2)c2cn(CC3(C)COC3)c(=O)cc12 [Compound 6, 1-methyl-6-[(3-methyloxetan-3-yl)methyl]-4-[[(1R)-1-[3-(trifluoromethyl)phenyl]ethyl]amino] pyrido[3,4-d]pyridazin-7-one] | – | 6.34 |
| Cc1nnc(N[C@H](C)c2cccc(C(F)(F)F)c2)c2cn(C(C)C)c(=O)cc12 [Compound 7, 6-isopropyl-1-methyl-4-[[(1R)-1-[3-(trifluoromethyl)phenyl]ethyl]amino] pyrido[3,4-d]pyridazin-7-one] | – | 7.02 |
| Cc1nnc(NC(C)c2cccc(C(F)(F)F)c2)c2cc(O[C@H]3CCOC3)cnc12 (stereo partly drawn) [Compound 9, 8-methyl-3-[(3S)-tetrahydrofuran-3-yl]oxy-N-[1-[3-(trifluoromethyl)phenyl]ethyl]pyrido[2,3-d]pyridazin-5-amine] | – | 6.60 |
| Cc1nnc(N[C@H](C)c2cccc(C(F)(F)F)c2)c2cc(O[C@H]3CCOC3)cnc12 [Compound 10, 8-methyl-3-[(3S)-tetrahydrofuran-3-yl]oxy-N-[(1R)-1-[3-(trifluoromethyl)phenyl]ethyl]pyrido[2,3-d]pyridazin-5-amine] | – | 6.76 |
| Cc1nnc(N[C@H](C)c2cccc(C(F)F)c2)c2cc(C3=CCCC3)c(=O)n(C)c12 [Compound 11, 3-(cyclopenten-1-yl)-5-[[(1R)-1-[3-(difluoromethyl)phenyl]ethyl]amino]-1,8-dimethyl-pyrido[2,3-d]pyridazin-2-one] | 178 nM | – |

Now from value to molecule:

| IC50 | SOS1/KRAS WT HTRF Binding assay pIC50 | Structure (SMILES) |
| --- | --- | --- |
| 58.9 nM | – | Cc1nnc(N[C@H](C)c2cccc(C(F)(F)F)c2)c2cn(C3(C)CC3)c(=O)cc12 (racemic) [Compound 14, 1-methyl-6-(1-methylcyclopropyl)-4-[[rac-(1R)-1-[3-(trifluoromethyl)phenyl]ethyl]amino] pyrido[3,4-d]pyridazin-7-one] |
| 36.3 nM | – | CC(=O)N1CC=C(c2cc3c(N[C@H](C)c4cccc(C(F)(F)F)c4)nnc(C)c3n(C)c2=O)CC1 (racemic) [Compound 19, 3-(1-acetyl-3,6-dihydro-2H-pyridin-4-yl)-1,8-dimethyl-5-[[rac-(1R)-1-[3-(trifluoromethyl)phenyl]ethyl]amino] pyrido[2,3-d]pyridazin-2-one] |
| 93.3 nM | – | Cc1nnc(N[C@H](C)c2cccc(C(F)F)c2)c2cc(C3CCOCC3)c(=O)n(C)c12 (racemic) [Compound 20, 1,8-dimethyl-5-[[rac-(1R)-1-[3-(difluoromethyl)phenyl]ethyl]amino]-3-tetrahydropyran-4-yl-pyrido[2,3-d]pyridazin-2-one] |
| 53.7 nM | – | Cc1nnc(N[C@H](C)c2cccc(C(F)F)c2)c2cc(C3CCN(C)CC3)c(=O)n(C)c12 (racemic) [Compound 21, 1,8-dimethyl-3-(1-methyl-4-piperidyl)-5-[[rac-(1R)-1-[3-(difluoromethyl)phenyl]ethyl]amino] pyrido[2,3-d]pyridazin-2-one] |
| – | 6.96 | Cc1nnc(N[C@H](C)c2cccc(C(F)(F)F)c2)c2cc(C3=CCCC3)c(=O)n(C)c12 [Compound 12, 3-(cyclopenten-1-yl)-1,8-dimethyl-5-[[(1R)-1-[3-(trifluoromethyl)phenyl]ethyl]amino] pyrido[2,3-d]pyridazin-2-one] |
| – | 7.20 | Cc1nnc(N[C@H](C)c2cccc(C(F)(F)F)c2)c2cn(C3CC3)c(=O)cc12 [Compound 13, 6-cyclopropyl-1-methyl-4-[[(1R)-1-[3-(trifluoromethyl)phenyl]ethyl]amino] pyrido[3,4-d]pyridazin-7-one] |
| – | 6.17 | Cc1nnc(NC(C)c2cccc(C(F)(F)F)c2)c2nc(O[C@H]3CCOC3)ccc12 (stereo partly drawn) [Compound 15, 5-methyl-2-[(3S)-tetrahydrofuran-3-yl]oxy-N-[1-[3-(trifluoromethyl)phenyl]ethyl]pyrido[2,3-d]pyridazin-8-amine] |
| – | 7.30 | Cc1nnc(N[C@H](C)c2cccc(C(F)(F)F)c2)c2cc(C3=CCCNC3)c(=O)n(C)c12 [Compound 16, 1,8-dimethyl-3-(1,2,3,6-tetrahydropyridin-5-yl)-5-[[(1R)-1-[3-(trifluoromethyl)phenyl]ethyl]amino] pyrido[2,3-d]pyridazin-2-one] |
| – | 7.36 | CC(=O)N1CCCC(c2cc3c(N[C@H](C)c4cccc(C(F)(F)F)c4)nnc(C)c3n(C)c2=O)C1 (stereo partly drawn) [Compound 18, 3-(1-acetyl-3-piperidyl)-1,8-dimethyl-5-[[(1R)-1-[3-(trifluoromethyl)phenyl]ethyl]amino] pyrido[2,3-d]pyridazin-2-one] |
| 35.5 nM | – | CC(=O)N1CCC(c2cc3c(N[C@H](C)c4cccc(C(F)F)c4)nnc(C)c3n(C)c2=O)CC1 [Compound 22, 3-(1-acetyl-4-piperidyl)-5-[[(1R)-1-[3-(difluoromethyl)phenyl]ethyl]amino]-1,8-dimethyl-pyrido[2,3-d]pyridazin-2-one] |
| – | 7.24 | Cc1nnc(N[C@H](C)c2cccc(C(F)(F)F)c2F)c2cc(C3CCNCC3)c(=O)n(C)c12 [Compound 23, 5-[[(1R)-1-[2-fluoro-3-(trifluoromethyl)phenyl]ethyl]amino]-1,8-dimethyl-3-(4-piperidyl)pyrido[2,3-d]pyridazin-2-one] |
